Earlier results, collected in patent US8486889B1, “Composition and method for the treatment and prevention of endothelial dysfunction” (Advanced Medical Instruments, priority 2001, dated 2013).
Blank lines part the entries; values can stand above or below the compound they belong to.

How the values were obtained:
[1] = 600 mg per day, double-blind trial
[2] = 500 mg/day, after one month
[3] = rats, intragastric indomethacin, pre-treatment with zinc sulphate
[4] = taken orally, versus placebo
[5] = simultaneous administration of zinc
[6] = rabbit
[7] = in vivo
[8] = glucosamine combined with an NSAID, activity preserved
[9] = Vioxx compared to naproxen
[10] = those on ASA
[11] = 325 mg ASA every other day
[12] = not given; remark: listed apart in the source
[13] = in a fast dissolving tablet
[14] = aspirin use

Compound: Vitamin E
endothelial-dependent dilation of the brachial artery [1]: showed improvement

Compound: O=C1O[C@H]([C@@H](O)CO)C(O)=C1O [Ascorbic acid]
lowering of systolic blood pressure [2]: 10%

Compound: O=S(=O)([O-])[O-].[Zn+2] [zinc sulphate]
mucosal ulcerations [3]: completely prevented
rate of gastric ulcer healing [4]: three times the rate of a placebo

Compound: [Zn] [zinc]
salicylate-induced hearing loss [5]: completely prevented

solubility: high lipid and aqueous solubility
Compound: COc1ccc2[nH]cc(CCNC(C)=O)c2c1 [Melatonin]

time to peak of effectiveness ([6]; 2.5 mg sublingual tablet): 20.8 min
time to peak effectiveness ([6]; injection): 15.8 min
Compound: CNC[C@H](O)c1ccc(O)c(O)c1 [epinephrine, Epinephrine]

absorbed in the GI tract [7]: 90%
solubility: very soluble in water
Compound: N[C@H]1C(O)O[C@H](CO)[C@@H](O)[C@@H]1O (stereo partly shown) [Glucosamine]
factor of decrease of the amount of NSAID required to produce an antiexudative result [8]: 2-2.7 times

risk of myocardial infarction [9]: four fold risk
Compound: CS(=O)(=O)c1ccc(C2=C(c3ccccc3)C(=O)OC2)cc1 [Vioxx, rofecoxib]

Compound: CC(=O)Oc1ccccc1C(=O)O [ASA, Acetylsalicylic acid]
fewer strokes [10]: 42%
reduction in the incidence of subsequent myocardial infarction, stroke, and death from cardiovascular causes ([11]; about 5 years): 25%
reduction in the incidence of first myocardial infarction ([11]; about 5 years, 22,000 US male physicians): 44%
time to reach blood levels and inhibit platelet activity ([12]; chewing the tablet): 5 min
time to reach peak blood levels ([12]; in vivo): 30 min
ASA absorbed by the buccal mucosa [13]: 16-35%
reduction of the risk of breast cancer [14]: 20%
reduction of the risk of colorectal cancer [14]: 50%
reduction of the risk of lung cancer [14]: 30%
reduction of the risk of prostate cancer [14]: 50%
